According to PubChem BioAssay (NCI):
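Grown in 96-well plates, cells were treated for 48 hours with each compound at five concentrations. Insufficient inhibition: endpoint recorded as highest concentration tested. Here, GI50 denotes the concentration required for 50% inhibition of growth. TGI: total growth inhibition.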

How the values were obtained:
Experiment in all cases: DTP human tumour cell line panel, 48 h
[1] = test system: K-562 leukemia
[2] = test system: OVCAR-4 ovarian
[3] = test system: LOX IMVI melanoma
[4] = test system: OVCAR-8 ovarian
[5] = test system: IGROV1 ovarian
[6] = test system: HL-60(TB) leukemia
[7] = test system: MDA-MB-231 breast
[8] = test system: HCC-2998 colon
[9] = test system: MCF7 breast
[10] = test system: SK-MEL-28 melanoma
[11] = test system: SNB-75 CNS
[12] = test system: UACC-62 melanoma
[13] = test system: NCI-H226 lung
[14] = test system: ACHN renal
[15] = test system: SW-620 colon
[16] = test system: RXF 393 renal
[17] = test system: OVCAR-5 ovarian
[18] = test system: RPMI-8226 leukemia
[19] = test system: CAKI-1 renal
[20] = test system: A549 NSCLC
[21] = test system: PC-3 prostate
[22] = test system: NCI-H522 lung
[23] = test system: HCT-15 colon
[24] = test system: HOP-92 NSCLC
[25] = test system: EKVX NSCLC
[26] = test system: COLO 205 colon
[27] = test system: SK-MEL-2 melanoma
[28] = test system: SF-539 CNS
[29] = test system: A498 renal
[30] = test system: TK-10 renal
[31] = test system: BT-549 breast
[32] = test system: HS 578T breast
[33] = test system: SNB-19 CNS
[34] = test system: MOLT-4 leukemia
[35] = test system: SK-OV-3 ovarian
[36] = test system: NCI-H460 lung
[37] = test system: OVCAR-3 ovarian
[38] = test system: KM12 colon
[39] = test system: MALME-3M melanoma
[40] = test system: SN12C renal
[41] = test system: SK-MEL-5 melanoma
[42] = test system: SF-295 CNS
[43] = test system: HT29 colon
[44] = test system: NCI/ADR-RES ovarian
[45] = test system: CCRF-CEM leukemia
[46] = test system: MDA-MB-435
[47] = test system: U251 CNS
[48] = test system: UO-31 renal
[49] = test system: SR leukemia
[50] = test system: SF-268 CNS
[51] = test system: NCI-H23 lung
[52] = test system: T-47D breast
[53] = test system: UACC-257 melanoma

Work on `COc1cc(/C=C2\C(=O)Nc3ccc(O)cc32)cc(OC)c1OC` yielded a GI50 [1] of 3.83 µM, a TGI [1] greater than 100 µM and a GI50 [2] of 11.1 µM. For the same compound, the TGI [2] was 55.7 µM, the GI50 [3] was 4.53 µM and the TGI [3] was 16.6 µM. For the same compound, the GI50 [4] was 18.3 µM, the TGI [4] was 65.6 µM and the GI50 [5] was 12.1 µM. It also gave a TGI [5] of 35.7 µM, a GI50 [6] of 6.11 µM and a TGI [6] of 40.7 µM. It also gave a GI50 [7] of 8.06 µM, a TGI [7] of 37 µM and a GI50 [8] of 7.46 µM. It also gave a TGI [8] of 20.9 µM, a GI50 [9] of 8.59 µM and a TGI [9] greater than 100 µM. The GI50 [10] was 14.1 µM, the TGI [10] was 30.2 µM and the GI50 [11] was 8.54 µM. For the same compound, the TGI [11] was 33.7 µM, the GI50 [12] was 11.7 µM and the TGI [12] was 26.6 µM. For the same compound, the GI50 [13] was 21.1 µM, the TGI [13] was 54.4 µM and the GI50 [14] was 15.9 µM. It also gave a TGI [14] of 78.6 µM, a GI50 [15] of 10.5 µM and a TGI [15] greater than 100 µM. For the same compound, the GI50 [16] was 2190 nM, the TGI [16] was 5.94 µM and the GI50 [17] was 17.5 µM. The TGI [17] was 33.5 µM, the GI50 [18] was 3.53 µM and the TGI [18] was 21.3 µM. The GI50 [19] was 23.1 µM, the TGI [19] was 83.1 µM and the GI50 [20] was 21 µM. It also gave a TGI [20] of 88 µM, a GI50 [21] of 2400 nM and a TGI [21] of 19.1 µM. For the same compound, the GI50 [22] was 4.24 µM, the TGI [22] was 17.1 µM and the GI50 [23] was 13.1 µM. It also gave a TGI [23] of 41 µM, a GI50 [24] of 7.92 µM and a TGI [24] of 30.2 µM. It also gave a GI50 [25] of 18.6 µM, a TGI [25] of 59 µM and a GI50 [26] of 20 µM. It also gave a TGI [26] of 59.6 µM, a GI50 [27] of 13.6 µM and a TGI [27] of 34.7 µM. The GI50 [28] was 5.86 µM, the TGI [28] was 81.5 µM and the GI50 [29] was 18.3 µM. The TGI [29] was 40.6 µM, the GI50 [30] was 40 µM and the TGI [30] was greater than 100 µM. It also gave a GI50 [31] of 11 µM, a TGI [31] of 29.4 µM and a GI50 [32] of 13.5 µM. It also gave a TGI [32] greater than 100 µM, a GI50 [33] of 11.9 µM and a TGI [33] of 40.6 µM. It also gave a GI50 [34] of 1240 nM, a TGI [34] of 28.5 µM and a GI50 [35] of 27.8 µM. The TGI [35] was 98.1 µM, the GI50 [36] was 8.69 µM and the TGI [36] was 35.9 µM. The GI50 [37] was 6.44 µM, the TGI [37] was 28.3 µM and the GI50 [38] was 17 µM. It also gave a TGI [38] greater than 100 µM, a GI50 [39] of 17.9 µM and a TGI [39] of 44.4 µM. The GI50 [40] was 15.5 µM, the TGI [40] was 72.2 µM and the GI50 [41] was 6.31 µM. For the same compound, the TGI [41] was 25.1 µM, the GI50 [42] was 26.4 µM and the TGI [42] was greater than 100 µM. For the same compound, the GI50 [43] was 10.3 µM, the TGI [43] was 25.3 µM and the GI50 [44] was 17.8 µM. It also gave a TGI [44] of 59 µM, a GI50 [45] of 4.34 µM and a TGI [45] of 34.4 µM. The GI50 [46] was 3.96 µM, the TGI [46] was 17.1 µM and the GI50 [47] was 4.08 µM. For the same compound, the TGI [47] was 16.8 µM, the GI50 [48] was 12.1 µM and the TGI [48] was 33.3 µM. The GI50 [49] was 1750 nM, the TGI [49] was 9.5 µM and the GI50 [50] was 6.49 µM. For the same compound, the TGI [50] was 26.8 µM, the GI50 [51] was 6.76 µM and the TGI [51] was 24.8 µM. The GI50 [52] was 7.55 µM, the TGI [52] was greater than 100 µM and the GI50 [53] was 8.48 µM. It also gave a TGI [53] of 22.1 µM.
